From patent US20250320213A1, “Nitrogen-Containing Heterocyclic Compounds” (Pfizer Inc., priority 2024, published 2025)

Assays:
STAT6 = biological target: T1, STAT6 (Homo sapiens, UniProt P42226); assay: STAT6 Reporter Luciferase Assay (IL-13 stimulated HaCaT keratinocyte NanoLuc reporter cells); assay type: cell-based; conditions: IL-13 stimulated HaCaT STAT6 NanoLuc reporter cells; read-out: Reporter EC50
T1 construct: stably transfected HaCaT keratinocyte cell line, which expresses NanoLuc luciferase reporter gene under the transcriptional control of the STAT6 responsive promoter; endogenous in cells; host or cells: HaCaT keratinocyte reporter cell line (stably transfected with a NanoLuc reporter)
T1 sequence (P42226 1-847): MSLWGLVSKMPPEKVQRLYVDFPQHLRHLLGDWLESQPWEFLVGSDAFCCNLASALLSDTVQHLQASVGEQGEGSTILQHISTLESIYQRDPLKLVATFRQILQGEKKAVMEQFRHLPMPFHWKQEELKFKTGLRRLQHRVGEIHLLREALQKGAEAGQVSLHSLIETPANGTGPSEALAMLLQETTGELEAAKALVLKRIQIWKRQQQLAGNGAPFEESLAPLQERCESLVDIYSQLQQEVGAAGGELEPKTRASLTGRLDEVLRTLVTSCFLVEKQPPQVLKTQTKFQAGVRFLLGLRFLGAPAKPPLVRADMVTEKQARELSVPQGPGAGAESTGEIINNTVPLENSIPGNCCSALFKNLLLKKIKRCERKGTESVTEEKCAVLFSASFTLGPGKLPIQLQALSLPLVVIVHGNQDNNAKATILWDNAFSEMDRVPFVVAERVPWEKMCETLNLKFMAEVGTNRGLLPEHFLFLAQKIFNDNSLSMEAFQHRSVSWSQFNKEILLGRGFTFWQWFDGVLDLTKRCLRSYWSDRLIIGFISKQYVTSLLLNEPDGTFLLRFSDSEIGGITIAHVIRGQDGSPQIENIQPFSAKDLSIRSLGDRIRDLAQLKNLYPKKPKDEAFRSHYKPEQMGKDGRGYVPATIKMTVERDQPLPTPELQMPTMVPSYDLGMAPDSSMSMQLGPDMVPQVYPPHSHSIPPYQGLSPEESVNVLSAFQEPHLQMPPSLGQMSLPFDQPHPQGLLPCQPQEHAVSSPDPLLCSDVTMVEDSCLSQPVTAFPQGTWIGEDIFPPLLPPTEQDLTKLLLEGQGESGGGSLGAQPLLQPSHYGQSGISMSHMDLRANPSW
Procedure, shortened: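 HaCaT IL-13Ra2-promoter NanoLuc reporter; cpd 2 h 37 °C in DMEM/2% HI FBS; IL-13 0.12 nM final, 4 h; Nano-Glo luminescence.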

[1] = tested on: CCL17 secretion in peripheral human whole blood; assay: Human Whole Blood (HWB) CCL17 TR-FRET Assay (IL-13 stimulated CCL17 secretion); assay type: cell-based; conditions: Homo sapiens, 48 h, human whole blood, IL-13 stimulated
Procedure, shortened: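 IC50 comes from serum CCL17 measured by a TR-FRET sandwich assay (16 h at room temperature, 665/615 nm ratio). Beforehand, blood in sodium heparin was exposed to an 11-point, 3-fold compound series for 2 h at 37°C and then to 10 ng/mL IL-13 for 48 h.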

Structure (SMILES) | EC50 (STAT6) [nM] | IC50 [1] [nM]
CC(C)n1nc(C(=O)NCc2ccc(NC(=O)N(C)C)nc2)c2c1[C@@H](C)CN(c1ccc(C(=O)N(C)C)cn1)C2 [Example 349, (S)-5-(5-(dimethylcarbamoyl)pyridin-2-yl)-N-((6-(3,3-dimethylureido)pyridin-3-yl)methyl)-1-isopropyl-7-methyl-4,5,6,7-tetrahydro-1H-pyrazolo[4,3-c]pyridine-3-carboxamide] | 2 | 11
CC(C)n1nc(C(=O)NCc2ccc(NC(=O)N(C)C)cn2)c2c1[C@@H](C)CN(c1ccc(C(=O)N(C)C)cn1)C2 [Example 350, (S)-5-(5-(dimethylcarbamoyl)pyridin-2-yl)-N-((5-(3,3-dimethylureido)pyridin-2-yl)methyl)-1-isopropyl-7-methyl-4,5,6,7-tetrahydro-1H-pyrazolo[4,3-c]pyridine-3-carboxamide] | 2 | 6
COc1nccc2c1CN(C(=O)c1ccc(N3CCc4c(c(C(=O)NCc5ccc(NC(=O)N(C)C)cc5)nn4C(C)C)C3)nc1)CC2 [Example 375, N-(4-(3,3-dimethylureido)benzyl)-1-isopropyl-5-(5-(8-methoxy-1,2,3,4-tetrahydro-2,7-naphthyridine-2-carbonyl)pyridin-2-yl)-4,5,6,7-tetrahydro-1H-pyrazolo[4,3-c]pyridine-3-carboxamide] | 15 | 1960
CC(C)n1nc(C(=O)NCc2ccc(C(N)=O)cc2)c2c1[C@@H](C)CN(c1ccc(C(=O)N3Cc4cccnc4C3)cn1)C2 [Example 395, (S)—N-(4-Carbamoylbenzyl)-5-(5-(6,7-dihydro-5H-pyrrolo[3,4-b]pyridine-6-carbonyl)pyridin-2-yl)-1-isopropyl-7-methyl-4,5,6,7-tetrahydro-1H-pyrazolo[4,3-c]pyridine-3-carboxamide] | 1 | 6
CNC(=O)c1ccc(CNC(=O)c2nn(C(C)C)c3c2CN(c2ccc(C(=O)N4Cc5cccnc5C4)cn2)C[C@@H]3C)cc1 [Example 396, (S)-5-(5-(6,7-dihydro-5H-pyrrolo[3,4-b]pyridine-6-carbonyl)pyridin-2-yl)-1-isopropyl-7-methyl-N-(4-(methylcarbamoyl)benzyl)-4,5,6,7-tetrahydro-1H-pyrazolo[4,3-c]pyridine-3-carboxamide] | 1 | 15
COc1ccnc2c1CCN(C(=O)c1ccc(N3CCc4c(c(C(=O)NCc5ccc(NC(=O)N(C)C)cc5)nn4C(C)C)C3)nc1)C2 [Example 407, N-(4-(3,3-dimethylureido)benzyl)-1-isopropyl-5-(5-(4-methoxy-5,6,7,8-tetrahydro-1,7-naphthyridine-7-carbonyl)pyridin-2-yl)-4,5,6,7-tetrahydro-1H-pyrazolo[4,3-c]pyridine-3-carboxamide] | 10 | 100
CC(C)n1nc(C(=O)NCc2ccc(NC(=O)N(C)C)cc2)c2c1CCN(c1ccc(C(=O)N3CCc4c(ncn4C4CC4)C3)cn1)C2 [Example 420, 5-(5-(1-cyclopropyl-4,5,6,7-tetrahydro-1H-imidazo[4,5-c]pyridine-5-carbonyl)pyridin-2-yl)-N-(4-(3,3-dimethylureido)benzyl)-1-isopropyl-4,5,6,7-tetrahydro-1H-pyrazolo[4,3-c]pyridine-3-carboxamide] | 17 | 125
CC(C)n1nc(C(=O)NCc2ccc(NC(=O)N(C)C)cc2)c2c1CCN(c1ccc(CC(N)=O)cn1)C2 [Example 430, 5-(5-(2-amino-2-oxoethyl)pyridin-2-yl)-N-(4-(3,3-dimethylureido)benzyl)-1-isopropyl-4,5,6,7-tetrahydro-1H-pyrazolo[4,3-c]pyridine-3-carboxamide] | 333 | 1410
CC(C)n1nc(C(=O)NCc2ccc(NC(=O)N(C)C)cc2)c2c1CCN(c1ccc(C(=O)N3Cc4cccc(C(=O)N(C)C)c4C3)cn1)C2 [Example 431, 5-(5-(4-(dimethylcarbamoyl)isoindoline-2-carbonyl)pyridin-2-yl)-N-(4-(3,3-dimethylureido)benzyl)-1-isopropyl-4,5,6,7-tetrahydro-1H-pyrazolo[4,3-c]pyridine-3-carboxamide] | 12 | 89
CC(C)n1ncc2c1CN(C(=O)c1ccc(N3CCc4c(c(C(=O)NCc5ccc(NC(=O)N(C)C)cc5)nn4C(C)C)C3)nc1)CC2 [Example 437, N-(4-(3,3-dimethylureido)benzyl)-1-isopropyl-5-(5-(1-isopropyl-4,5,6,7-tetrahydro-1H-pyrazolo[3,4-c]pyridine-6-carbonyl)pyridin-2-yl)-4,5,6,7-tetrahydro-1H-pyrazolo[4,3-c]pyridine-3-carboxamide] | 45 | 1050

Other lines, results leading:

EC50 (STAT6) [nM] | IC50 [1] [nM] | Structure (SMILES)
15 | 1070 | COc1ccc2c(n1)CCN(C(=O)c1ccc(N3CCc4c(c(C(=O)NCc5ccc(NC(=O)N(C)C)cc5)nn4C(C)C)C3)nc1)C2 [Example 384, N-(4-(3,3-dimethylureido)benzyl)-1-isopropyl-5-(5-(2-methoxy-5,6,7,8-tetrahydro-1,6-naphthyridine-6-carbonyl)pyridin-2-yl)-4,5,6,7-tetrahydro-1H-pyrazolo[4,3-c]pyridine-3-carboxamide]
8 | 29 | CCn1nc(C(=O)NCc2ccc(C(=O)NC)cc2)c2c1[C@@H](C)CN(c1ccc(N3CCCC3=O)cn1)C2 [Example 388, (S)-1-ethyl-7-methyl-N-(4-(methylcarbamoyl)benzyl)-5-(5-(2-oxopyrrolidin-1-yl)pyridin-2-yl)-4,5,6,7-tetrahydro-1H-pyrazolo[4,3-c]pyridine-3-carboxamide]
6 | 17 | CCn1nc(C(=O)NCc2ccc(C(N)=O)cc2)c2c1[C@@H](C)CN(c1ccc(N3CCCC3=O)cn1)C2 [Example 389, (S)-N-(4-carbamoylbenzyl)-1-ethyl-7-methyl-5-(5-(2-oxopyrrolidin-1-yl)pyridin-2-yl)-4,5,6,7-tetrahydro-1H-pyrazolo[4,3-c]pyridine-3-carboxamide]
1 | 9 | CCn1nc(C(=O)NCc2ccc(-c3nc(C)c[nH]3)cc2)c2c1[C@@H](C)CN(c1ncc(C(=O)N(C)C)cn1)C2 [Example 397, (S)-5-(5-(dimethylcarbamoyl)pyrimidin-2-yl)-1-ethyl-7-methyl-N-(4-(4-methyl-1H-imidazol-2-yl)benzyl)-4,5,6,7-tetrahydro-1H-pyrazolo[4,3-c]pyridine-3-carboxamide]
0.3 | 7 | CCn1nc(C(=O)NCc2ccc(NC(=O)N3CCN(C)CC3)cc2)c2c1[C@@H](C)CN(c1ccc(C(=O)N(C)C)cc1)C2 [Example 398, (S)-5-(4-(dimethylcarbamoyl)phenyl)-1-ethyl-7-methyl-N-(4-(4-methylpiperazine-1-carboxamido)benzyl)-4,5,6,7-tetrahydro-1H-pyrazolo[4,3-c]pyridine-3-carboxamide]
1040 | 2570 | CN(C)C(=O)Nc1ccc(CNC(=O)c2nn(C)c3c2CN(c2ccc(C(=O)N(C)C)cn2)C2(CC2)C3)cc1 [Example 400, 5′-(5-(dimethylcarbamoyl)pyridin-2-yl)-N-(4-(3,3-dimethylureido)benzyl)-1′-methyl-1′,4′,5′,7′-tetrahydrospiro[cyclopropane-1,6′-pyrazolo[4,3-c]pyridine]-3′-carboxamide]
11 | 878 | COc1ccc2c(n1)CN(C(=O)c1ccc(N3CCc4c(c(C(=O)NCc5ccc(NC(=O)N(C)C)cc5)nn4C(C)C)C3)nc1)CC2 [Example 443, N-(4-(3,3-dimethylureido)benzyl)-1-isopropyl-5-(5-(2-methoxy-5,6,7,8-tetrahydro-1,7-naphthyridine-7-carbonyl)pyridin-2-yl)-4,5,6,7-tetrahydro-1H-pyrazolo[4,3-c]pyridine-3-carboxamide]
21 | 93 | CC(C)n1nc(C(=O)NCc2ccc(N)cc2)c2c1[C@@H](C)CN(c1ccc(C(=O)N(C)C)cn1)C2 [Example 450, (S)-N-(4-aminobenzyl)-5-(5-(dimethylcarbamoyl)pyridin-2-yl)-1-isopropyl-7-methyl-4,5,6,7-tetrahydro-1H-pyrazolo[4,3-c]pyridine-3-carboxamide]
